Read-outs that look alike come from different tables or passages of the source. The star is where a group is joined. Cbz = O=C(OCc1ccccc1)*; CH2F = FC*
Key:
N27 cells = conditions: for increase in DNA fragmentation compared to untreated cells: toxin alone
Experimental: […] Z is the abbreviation for N-benzyloxycarbonyl. Untreated cells were used as control samples. After the treatment, the cells were collected by trypsinization (Trypsin 0.25%, 1 mM EDTA), centrifuged at 200×g for 5 min, washed with PBS twice, then lysed. The lysate was used for DNA fragmentation assay.
DNA fragmentation assays were performed using a recently developed Cell Death Detection ELISA Plus Assay Kit. This is a fast, highly sensitive and reliable assay for the detection of early changes in apoptotic cell death. After treatments, 20 μl of cell lysate was processed according to the manufacturer's protocol. The assay solution consisted of a mixture of anti-histone biotin and anti-DNA-HRP directed against various histones and antibodies to both single stranded DNA and double stranded DNA, the major constituents of nucleosomes. After 2 hr incubation, unbound components were removed by washing with the incubation buffer supplied with the kit. Quantification of the nucleosomes retained by anti-DNA-HRP in the immunocomplex was determined spectrophotometrically with ABTS (2,2′-azino-di[3-ethoxybenzyl thiazoline sulfonate) as a HRP substrate (supplied with the kit). Measurements were made at 405 nm against an ABTS solution as a blank (reference wave length 490 nm).
(§1) Chemicals. Protease cocktail, ATP, protein-A-sepharose, protein-G-sepharose and anti-â-actin antibody were obtained from Sigma-Aldrich (St. Louis, Mo.); mouse tyrosine hydroxylase antibody was purchased from Chemicon (Temecula, Calif.); the rabbit polyclonal antibody for tyrosine hydroxylase was obtained from Calbiochem Bioscience, Inc. (King of Prussia, Pa.); rabbit PKCδ antibody was purchased from Santa Cruz Biotechnology, Inc. (Santa Cruz, Calif.); anti-rabbit and anti-mouse secondary antibodies and the ECL chemiluminescence kit were purchased from Amersham Pharmacia Biotech. (Piscataway, N.J.). Alexa 488 conjugated antirabbit/mouse, Cy3 conjugated anti-rabbit/mouse antibody and Hoechst 33342 were purchased from Molecular Probes, Inc. (Eugene, Oreg.). [ã-32P]ATP was purchased from Perkin Elmer Life Science Products (Boston, Mass.). The Bradford protein assay kit was purchased from Bio-Rad Laboratories (Hercules, Calif.). RPMI, fetal bovine serum, -glutamine, penicillin, and streptomycin were purchased from Invitrogen (Gaithersburg, Md.). Quantity One 4.2.0 software was purchased from Bio-Rad. Design and synthesis of z-DIPD-fmk (SEQ ID NO:5). To develop a cell permeable peptide inhibitor to specifically block PKCδ cleavage, we designed the tetrapeptide Asp-Ile-Pro-Asp (DIPD) (SEQ ID NO:5) corresponding to position 324-327 in rat PKCδ cDNA representing the caspase-3 cleavage site. Since this peptide is directed against the caspase-3 cleavage site of PKCδ, it should prevent the proteolytic cleavage and activation of PKCδ mediated by caspase-3. The custom synthesis of the tetrapeptide Z-Asp(OMe)-Ile-Pro-Asp(OMe)-FMK (SEQ ID NO:5) was performed at MP Biomedicals (Irvine, Calif.), a quality company that specializes in developing cell permeable peptide inhibitors directed against apoptosis cell signaling molecules. Briefly, the synthesis was performed with the reaction of Boc-D(OMe)-OH with MBFM (Magnesium benzyl fluoromalonate) to produce Beta-Keto fluoroester, followed by hydrogenation with Pd/c to produce Boc-D(OMe)FK, which was converted into Tfa salt using trifluoroacetic acid. Coupling of Tfa salt with Z-D(OMe)—I—P—OH in DMF with HOBT, HBTU DIEA and workup produced a crude product which was purified by column chromatography over silica gel. Elution with EtOAC:MeOH 95:5 gave pure fractions which were mixed and dried. Crystallization with EtOAC/Hexane, filtration and drying produced the pure product. Animals.

[1] = MTT cytotoxicity assay, MPP+- and 6-OHDA-induced cytotoxicity; conditions: rat
Excerpt: as §1, with “Briefly, the synthesis was performed with the reaction of Boc-D(OMe)-OH with MBFM (Magnesium benzyl fluoromalonate) to produce Beta-Keto fluoroester, followed by hydrogenation with Pd/c to produce Boc-D(OMe)FK, which was converted into Tfa salt using trifluoroacetic acid. Coupling of Tfa salt with Z-D(OMe)—I—P—OH in DMF with HOBT, HBTU DIEA and workup produced a crude product which was purified by column chromatography over silica gel. Elution with EtOAC:MeOH 95:5 gave pure fractions which were mixed and dried. Crystallization with EtOAC/Hexane, filtration and drying produced the pure product. Animals.” left out

caspase-3 [2] = biological target: T1, caspase-3 (Rattus norvegicus, UniProt P55213); assay: Caspase-3 activity assay with fluorogenic substrate Ac-DEVD-AFC in treated N27 cells; assay type: cell-based; conditions: toxin alone
T1 construct: N27 cells were exposed to either MPP^+ or 6-OHDA in the absence or presence of z-DIPD-fmk; endogenous in cells; host or cells: N27 rat mesencephalic dopaminergic neuronal cells
T1 sequence (P55213 29-175 limits assumed): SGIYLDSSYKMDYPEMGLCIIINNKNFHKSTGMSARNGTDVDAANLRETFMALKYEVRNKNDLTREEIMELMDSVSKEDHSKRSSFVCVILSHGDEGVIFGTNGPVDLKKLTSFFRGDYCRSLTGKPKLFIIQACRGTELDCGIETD
T1 sequence (P55213 176-277 limits assumed): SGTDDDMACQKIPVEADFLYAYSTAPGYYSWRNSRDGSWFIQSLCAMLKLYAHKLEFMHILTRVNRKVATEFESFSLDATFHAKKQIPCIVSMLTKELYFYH
Excerpt: as §1, with “Animals. Time-pregnant C57/bL mice were housed under standard conditions: constant temperature (22±1° C.), humidity (relative, 30%) and a 12-h light/dark cycle with free access to food and water. The animals and protocol procedures were approved and supervised by the Committee on Animal Care (COAC) at Iowa State University. Cell culture. Rat mesencephalic dopaminergic neuronal (N27) cells were cultured as described earlier (Anantharam et al., 2002). Briefly, cells were grown in RPMI 1640 medium containing 10% fetal bovine serum, 2 mM L-glutamine, 50 units of penicillin, and 50 μg/ml streptomycin. Cells were maintained in a humidified atmosphere of 5% CO2 at 37° C. Primary mesencephalic neuronal cultures were prepared from the ventral mesencephalon of gestational 18-day-old mice embryos as described previously (Yang et al., 2004). Mesencephalic tissues were dissected and maintained in ice-cold Ca2+-free HBSS and then dissociated in HBSS solution containing trypsin-EDTA (0.25%) for 20 min at 37° C. […]” for “Animals.”

PKCδ = assay: Immunoprecipitation kinase assay (histone H1 phosphorylation) in N27 cells; assay type: cell-based, rat; conditions: toxin alone
Excerpt: as §1, with “Animals. Time-pregnant C57/bL mice were housed under standard conditions: constant temperature (22±1° C.), humidity (relative, 30%) and a 12-h light/dark cycle with free access to food and water. The animals and protocol procedures were approved and supervised by the Committee on Animal Care (COAC) at Iowa State University. Cell culture. […]” for “Animals.”

[3] = tested on: N27 mesencephalic neuronal cells; assay: MTT cytotoxicity assay, MPP+- and 6-OHDA-induced cytotoxicity; conditions: N27 cells, 300 μM MPP+ 36 hr, toxin alone
Excerpt: as §1, with “Briefly, the synthesis was performed with the reaction of Boc-D(OMe)-OH with MBFM (Magnesium benzyl fluoromalonate) to produce Beta-Keto fluoroester, followed by hydrogenation with Pd/c to produce Boc-D(OMe)FK, which was converted into Tfa salt using trifluoroacetic acid. Coupling of Tfa salt with Z-D(OMe)—I—P—OH in DMF with HOBT, HBTU DIEA and workup produced a crude product which was purified by column chromatography over silica gel. Elution with EtOAC:MeOH 95:5 gave pure fractions which were mixed and dried. Crystallization with EtOAC/Hexane, filtration and drying produced the pure product. Animals.” left out

caspase-3 [4] = biological target: T2, caspase-3 (rat, UniProt P55213 29-277, limits assumed); assay: cell-based or functional assay
T2 sequence (looked up): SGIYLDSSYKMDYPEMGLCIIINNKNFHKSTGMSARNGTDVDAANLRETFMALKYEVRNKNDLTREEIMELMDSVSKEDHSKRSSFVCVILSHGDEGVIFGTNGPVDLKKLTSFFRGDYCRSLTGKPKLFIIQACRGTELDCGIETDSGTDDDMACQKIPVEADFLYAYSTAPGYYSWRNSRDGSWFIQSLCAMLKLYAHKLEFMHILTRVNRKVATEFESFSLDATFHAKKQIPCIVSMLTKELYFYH

## NCCc1cc(O)c(O)cc1O [6-OHDA, 6-hydroxydopamine, reference compound]
N27 cells; 100 μM 6-OHDA 24 hr
  increase in DNA fragmentation compared to untreated cells: 93%
[1]
  cytotoxicity at 24 h, 100 μM: > 60%
caspase-3 [2]; 100 μM 6-OHDA 24 hr
  increase in caspase-3 enzyme activity: ~2.5 fold
PKCδ; 100 μM 6-OHDA 24 hr
  increase in PKCδ enzymatic activity over the untreated cells: 235%

## C[n+]1ccc(-c2ccccc2)cc1 [MPP^+, 1-methyl-4-phenylpyridinium, reference compound]
N27 cells; 300 μM MPP+ 36 hr
  increase in DNA fragmentation compared to untreated cells: 75%
[3]
  loss of cell viability (MTT): more than 40%
caspase-3 [2]; 300 μM MPP+ 36 hr
  increase in caspase-3 enzyme activity: ~2.5 fold
PKCδ; 300 μM MPP+ 36 hr
  increase in PKCδ enzymatic activity over the untreated cells: 333%

## COC(=O)CC[C@H](NC(=O)[C@H](CC(=O)OC)NC(=O)OCc1ccccc1)C(=O)N[C@H](C(=O)N[C@@H](CC(=O)OC)C(=O)CF)C(C)C [z-DEVD-fmk, Asp-Glu-Val-Asp-FMK, reference compound]
N27 cells; 100 μM 6-OHDA 24 hr, concentration not stated or dose-response 1-50 μM
  effect on 6-OHDA-induced DNA fragmentation / apoptotic cell death: dose dependently blocked
N27 cells; read-out: IC50, 6-OHDA-induced DNA fragmentation (apoptotic cell death), 100 μM 6-OHDA 24 hr, inhibitor 1-50 μM
  IC50: 18 µM

B1: Z-Asp(OMe)-Ile-Pro-Asp(OMe)-FMK (N-benzyloxycarbonyl-Asp(OMe)-Ile-Pro-Asp(OMe)-fluoromethyl ketone) (peptide)
peptide: Cbz-D(OMe)IPD(OMe)-CH2F
SMILES: CC[C@H](C)[C@H](NC(=O)[C@H](CC(=O)OC)NC(=O)OCc1ccccc1)C(=O)N1CCC[C@H]1C(=O)N[C@@H](CC(=O)OC)C(=O)CF
caspase-3 [4]
  IC50 for inhibition of 6-OHDA-induced DNA fragmentation (Cell Death Detection ELISA) in N27 cells: 6 µM

B2: z-DEVD-fmk (Asp-Glu-Val-Asp-FMK) (peptide)
peptide: Cbz-DEVD-CH2F
SMILES: CC(C)[C@H](NC(=O)[C@H](CCC(=O)O)NC(=O)[C@H](CC(=O)O)NC(=O)OCc1ccccc1)C(=O)N[C@@H](CC(=O)O)C(=O)CF
caspase-3 [4]
  IC50 for inhibition of 6-OHDA-induced DNA fragmentation (Cell Death Detection ELISA) in N27 cells: 18 µM

— patent publication US7632819B1, “Methods and compositions for inhibiting PKC delta cleavage for treatment and prevention of neurodegeneration and apoptosis” (Iowa State University Research Foundation, Inc., priority 2004, dated 2009)
